{"source": "paper PMC11189516", "about": "“Structure-guided conversion from an anaplastic lymphoma kinase inhibitor into Plasmodium lysyl-tRNA synthetase selective inhibitors” (Communications Biology, 2024)", "key": {"PfLysRS [1]": {"biological_target": "T1, PfLysRS (Plasmodium falciparum, UniProt Q8IDJ8)", "T1 construct": "PfLysRS (77–583) was constructed in the vector pET20b, with a C-terminal 6×His tag; 6xHis (C); made in house; host or cells: E. coli BL21 (DE3)", "T1 sequence (Q8IDJ8 entry or part of it)": "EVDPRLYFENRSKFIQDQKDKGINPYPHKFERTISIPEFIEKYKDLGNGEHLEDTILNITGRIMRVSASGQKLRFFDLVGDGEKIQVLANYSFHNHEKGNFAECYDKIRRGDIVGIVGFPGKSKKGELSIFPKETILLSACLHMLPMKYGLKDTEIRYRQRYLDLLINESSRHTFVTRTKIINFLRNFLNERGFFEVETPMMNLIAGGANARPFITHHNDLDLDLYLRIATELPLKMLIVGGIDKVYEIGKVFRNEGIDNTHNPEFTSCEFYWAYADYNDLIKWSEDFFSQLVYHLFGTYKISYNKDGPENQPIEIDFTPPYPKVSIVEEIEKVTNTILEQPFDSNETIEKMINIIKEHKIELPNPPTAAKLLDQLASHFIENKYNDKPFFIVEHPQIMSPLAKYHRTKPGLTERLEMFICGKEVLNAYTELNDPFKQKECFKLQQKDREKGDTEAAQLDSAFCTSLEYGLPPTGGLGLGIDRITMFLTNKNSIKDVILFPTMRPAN", "experiment": "Thermal shift assay", "format": "binding", "experimental": "PfLysRS protein was prepared at 10 μM concentration in a buffer containing 20 mM Tris pH 8.0, 200 mM NaCl, 500 μM L-lysine, and 200 μM Compound. Aliquots (18 µL) were added to a 96-well PCR plate and incubated at ambient temperature for 10 min. SYPRO Orange dye (Sigma) was diluted in the assay buffer containing 20 mM Tris pH 8.0 and 200 mM NaCl to a 40× concentration, and 2 µL of the 40× dye solution was added to the PCR plate to bring the final assay volume to 20 µL. After complete mixing, the final solutions were heated from 25 to 90 °C at a rate of 0.015 °C per sec, and fluorescence signals were monitored by QuantStudio 3 (Applied Biosystems by Thermo Fisher Scientific)."}, "PfLysRS [2]": {"biological_target": "T1, PfLysRS", "experiment": "Surface plasmon resonance (SPR) assay", "format": "binding", "conditions": "immobilized PfLysRS", "experimental": "PfLysRS was chemically immobilized on a Biacore CM5 sensorchip (immobilization level ~20000 resonance unit/RU) at pH 5.0 according to the immobilization kit (GE Healthcare). PfLysRS (1.7 nM) was captured for 90 s at a flow of 30 µL·min^−1. Affnity between PfLysRS and compounds was measured by SPR on a Biacore 8 K (GE Healthcare) at 25 °C with a running buffer (0.02 M phosphate buffer pH 7.4, 2.7 mM KCl, 0.137 M NaCl, 0.05% Tween 20, with 1 mM L-lysine). The association time was 90 s, the dissociation time was 120 s, and the flowrate was 30 µL·min^−1. Kinetic evaluation of the interaction between LysRS and compounds was performed by global fitting of the data to a 1:1 interaction model using Biacore Evaluation Software 3.1 (GE Healthcare)."}, "PfLysRS [3]": {"biological_target": "T1, PfLysRS", "experiment": "ATP hydrolysis assay (Kinase-Glo) on PfLysRS", "format": "biochemical", "experimental": "(§1) The ATP hydrolysis assays were based on Kinase-Glo luminescent Kit (Promega). The experiment was carried out in Corning 384-well white flat bottom microplates. The buffer in the reaction contains 25 mM Hepes pH 7.4, 140 mM NaCl, 40 mM MgCl2, 30 mM KCl, 1 mM TCEP, 0.1 mg·mL^−1 BSA, and 0.004% Tween-20. The compounds were diluted to different concentrations with a 5-fold gradient.\n(§2) For LysRS assays, DMSO was added into negative control wells and L-lysine was removed in positive control wells. 100 nM LysRS in 2.5 μL Hepes buffer was mixed with compounds and incubated for 10 min. Then 5 μL substrate mixture (2 μM ATP, 10 μM L-lysine and 31 nM pyrophosphatase) was added to start the reaction at 37 °C and incubated for 6 h.\n(§3) When the reaction reaches the planned time, 10 μL diluted Kinase-Glo reagent (1/50 diluted with a buffer containing 50 mM Tris pH 7.5 and 5% glycerol) was added and incubated for 15 min. Luminescence was measured on the Magellan plate reader (Tecan) and nonlinear regression was performed with Prism (GraphPad)."}, "HsLysRS": {"biological_target": "T2, HsLysRS (Homo sapiens, UniProt Q15046)", "T2 construct": "HsLysRS (70–581) was constructed in the vector pET20b with a C-terminal 6×His tag; 6xHis (C); made in house; host or cells: E. coli (pET20b; 'purified similarly' to PfLysRS, which was expressed in BL21 (DE3))", "T2 sequence (Q15046 70-581)": "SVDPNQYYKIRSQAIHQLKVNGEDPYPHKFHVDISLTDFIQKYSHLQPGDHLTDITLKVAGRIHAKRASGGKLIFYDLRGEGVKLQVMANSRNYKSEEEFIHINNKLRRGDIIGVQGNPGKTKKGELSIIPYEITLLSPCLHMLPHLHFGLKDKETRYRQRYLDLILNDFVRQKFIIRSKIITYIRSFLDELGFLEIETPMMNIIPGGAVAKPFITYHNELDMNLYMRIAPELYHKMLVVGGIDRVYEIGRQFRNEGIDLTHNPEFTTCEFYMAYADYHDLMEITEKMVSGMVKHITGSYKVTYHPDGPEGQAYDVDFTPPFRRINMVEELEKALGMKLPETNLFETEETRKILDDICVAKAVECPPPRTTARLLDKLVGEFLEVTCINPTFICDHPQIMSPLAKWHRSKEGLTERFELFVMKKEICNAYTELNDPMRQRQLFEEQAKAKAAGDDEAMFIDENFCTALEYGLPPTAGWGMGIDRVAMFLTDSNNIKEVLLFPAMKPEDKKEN", "experiment": "ATP hydrolysis assay (Kinase-Glo) on HsLysRS", "format": "biochemical", "experimental": "as §1, §2, §3"}, "ALK": {"biological_target": "T3, ALK (Homo sapiens, UniProt Q9UM73)", "T3 construct": "The plasmid pCDNA3.1_8×His-tev-ALK (kinase domain, 1068–1410) was constructed; 8xHis (N); TEV site (N); made in house; host or cells: Expi293 cells (transient transfection)", "T3 sequence (Q9UM73 1068-1410)": "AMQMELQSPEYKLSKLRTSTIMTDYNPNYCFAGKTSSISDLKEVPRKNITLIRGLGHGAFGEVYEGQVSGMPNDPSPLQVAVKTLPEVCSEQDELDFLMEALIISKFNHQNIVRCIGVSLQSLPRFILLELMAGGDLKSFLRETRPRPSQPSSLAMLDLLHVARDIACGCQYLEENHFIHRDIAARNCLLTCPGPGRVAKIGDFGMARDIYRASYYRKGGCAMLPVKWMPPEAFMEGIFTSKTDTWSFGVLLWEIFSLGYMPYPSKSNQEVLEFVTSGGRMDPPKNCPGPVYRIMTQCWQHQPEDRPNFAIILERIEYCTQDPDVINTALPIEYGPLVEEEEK", "experiment": "ATP hydrolysis assay (Kinase-Glo) on ALK", "format": "biochemical", "experimental": "as §1\nFor ALK assays, DMSO was added into negative control wells. 100 nM ALK in 2.5 μL Hepes buffer was mixed with compounds and incubated for 10 min. Then 5 μL substrate (2 μM ATP) was added to start the reaction at 37 °C and incubated for 6 h.\nas §3"}, "[4]": {"test_system": "erythrocytic-stage P. falciparum 3D7 parasites", "experiment": "In vitro Plasmodium growth assay", "format": "cell-based, Plasmodium falciparum", "experimental": "Parasites were cultured in human O+ erythrocytes according to standard procedures. To prepare the >80% ring stage parasites, asynchronous cultures of parasites were pretreated with 5% sorbitol, and P. falciparum strain 3D7 at the mid-ring stage (6–10 h post-invasion) was used to test antimalarial effects in 96-well plates. Parasites were incubated in a 96-well plate with compound containing 1% parasitemia and, 2% hematocrit for a total volume of 200 μL. […] A relevant DMSO concentration was used as a negative control, and cultured erythrocytes without Plasmodium served as a positive control. The parasites were allowed to grow for 72 h at 37 °C with 5% CO2, 5% O2, and 90% N2. After 72 h, 100 μL of lysis buffer (0.12 mg·mL^−1 Saponin, 0.12% Triton X-100, 30 mM Tris-HCl pH 8.0, and 7.5 mM EDTA) with 5× SYBR Green I (Invitrogen; supplied in 10000× concentration) was added to each well of the plate. The plates were then incubated for 2 h in the dark prior to reading the fluorescence signal at 485 nm excitation and 535 nm emission. The percentage of inhibition was calculated by (NC-fluorescence) × 100/(NC-PC)."}}, "note": "Where “and” joins values, the source holds several entries; their conditions need not be identical. Equal values may be shown once. Read-outs that look alike come from different tables or passages of the source."}
{"molecule": "COc1ccccc1Nc1ncnc(Nc2ccccc2S(=O)(=O)C(C)C)n1", "note": "[Compound 38]", "values": [{"measurement": "Tm of PfLysRS, Average", "setting": "PfLysRS [1]; +Lysine", "result": 52.704, "unit": "°C"}, {"measurement": "Tm of PfLysRS, single repeat", "setting": "PfLysRS [1]; +Lysine", "result": "52.703 °C and 52.673 °C and 52.642 °C and 52.796 °C"}, {"measurement": "Tm of PfLysRS, Average", "setting": "PfLysRS [1]; -Lysine", "result": 50.586, "unit": "°C"}, {"measurement": "Tm of PfLysRS, single repeat", "setting": "PfLysRS [1]; -Lysine", "result": "50.911 °C and 50.756 °C and 50.045 °C and 50.632 °C"}, {"measurement": "ΔTm at 200 µM", "setting": "PfLysRS [1]; in the absence of L-lysine", "result": 7.6, "unit": "°C"}, {"measurement": "ΔTm at 200 µM", "setting": "PfLysRS [1]; in the presence of L-lysine", "result": "~9", "unit": "°C"}, {"measurement": "koff", "setting": "PfLysRS [2]", "result": 0.0137, "unit": "s⁻¹"}, {"measurement": "kon", "setting": "PfLysRS [2]", "result": 218000, "unit": "M/s"}, {"measurement": "Kd", "setting": "PfLysRS [2]; 1 mM L-lysine in running buffer, read-out: dissociation constant (KD)", "result": 62.8, "unit": "nM"}, {"measurement": "HillSlope (best-fit value)", "setting": "PfLysRS [3]; PfLysRS", "result": 0.6107}, {"measurement": "LogIC50 (best-fit value)", "setting": "PfLysRS [3]; PfLysRS, log of nM", "result": 2.959}, {"measurement": "IC50", "setting": "PfLysRS [3]; PfLysRS, source data, read-out: IC50 (best-fit value)", "result": 910, "unit": "nM"}, {"measurement": "IC50", "setting": "PfLysRS [3]; read-out: IC50 against PfLysRS", "result": 910, "unit": "nM"}, {"measurement": "HillSlope (best-fit value)", "setting": "HsLysRS; HsLysRS", "result": 2.263}, {"measurement": "% Inhibition", "setting": "HsLysRS; HsLysRS, Log(Concentration)/nM 2.505, single repeats", "result": "4.732% and 9.196% and 7.614%"}, {"measurement": "% Inhibition", "setting": "HsLysRS; HsLysRS, Log(Concentration)/nM 3.204, single repeats", "result": "10.26% and 9.294% and 11.16%"}, {"measurement": "% Inhibition", "setting": "HsLysRS; HsLysRS, Log(Concentration)/nM 3.903, single repeats", "result": "5.367% and 4.771% and 4.914%"}, {"measurement": "% Inhibition", "setting": "HsLysRS; HsLysRS, Log(Concentration)/nM 4.602, single repeats", "result": "24.12% and 17.72% and 16.76%"}, {"measurement": "% Inhibition", "setting": "HsLysRS; HsLysRS, Log(Concentration)/nM 5.301, single repeats", "result": "34.85% and 34.96% and 31.62%"}, {"measurement": "% Inhibition", "setting": "HsLysRS; HsLysRS, Log(Concentration)/nM 6.000, single repeats", "result": "100.3% and 101% and 91.99%"}, {"measurement": "LogIC50 (best-fit value)", "setting": "HsLysRS; HsLysRS, log of nM", "result": 5.476}, {"measurement": "IC50", "setting": "HsLysRS; HsLysRS, source data, read-out: IC50 (best-fit value)", "result": 299000, "unit": "nM"}, {"measurement": "selectivity of PfLysRS over human LysRS (HsLysRS)", "setting": "HsLysRS; in vitro", "result": 328, "unit": "times"}, {"measurement": "IC50", "setting": "HsLysRS; read-out: IC50 against HsLysRS", "result": "299000 ± 34000", "unit": "nM"}, {"measurement": "HillSlope (best-fit value)", "setting": "ALK; ALK", "result": 1.505}, {"measurement": "LogIC50 (best-fit value)", "setting": "ALK; ALK, log of nM", "result": 2.726}, {"measurement": "IC50", "setting": "ALK; ALK, source data, read-out: IC50 (best-fit value)", "result": 532, "unit": "nM"}, {"measurement": "IC50", "setting": "ALK; read-out: IC50 against ALK", "result": 532, "unit": "nM"}, {"measurement": "% Inhibition", "setting": "[4]; P. falciparum 3D7, Log(Concentration)/nM 2.290, single repeats", "result": "0.5244% and -0.5244%"}, {"measurement": "% Inhibition", "setting": "[4]; P. falciparum 3D7, Log(Concentration)/nM 2.592, single repeats", "result": "0.1049% and 1.993%"}, {"measurement": "% Inhibition", "setting": "[4]; P. falciparum 3D7, Log(Concentration)/nM 2.893, single repeats", "result": "5.139% and 2.098%"}, {"measurement": "% Inhibition", "setting": "[4]; P. falciparum 3D7, Log(Concentration)/nM 3.193, single repeats", "result": "11.12% and 9.229%"}, {"measurement": "% Inhibition", "setting": "[4]; P. falciparum 3D7, Log(Concentration)/nM 3.496, single repeats", "result": "30.2% and 31.57%"}, {"measurement": "% Inhibition", "setting": "[4]; P. falciparum 3D7, Log(Concentration)/nM 3.796, single repeats", "result": "64.29% and 65.65%"}, {"measurement": "% Inhibition", "setting": "[4]; P. falciparum 3D7, Log(Concentration)/nM 4.097, single repeats", "result": "93.45% and 91.87%"}, {"measurement": "% Inhibition", "setting": "[4]; P. falciparum 3D7, Log(Concentration)/nM 4.398, single repeats", "result": "99.84% and 98.9%"}, {"measurement": "% Inhibition", "setting": "[4]; P. falciparum 3D7, Log(Concentration)/nM 4.699, single repeats", "result": "100.4% and 99.63%"}, {"measurement": "% Inhibition", "setting": "[4]; P. falciparum 3D7, Log(Concentration)/nM 5.000, single repeats", "result": "98.16% and 95.65%"}, {"measurement": "HillSlope (best-fit value)", "setting": "[4]; Plasmodium falciparum 3D7", "result": 2.23}, {"measurement": "LogIC50 (best-fit value)", "setting": "[4]; Plasmodium falciparum 3D7, log of nM", "result": 3.663}, {"measurement": "IC50", "setting": "[4]; Plasmodium falciparum 3D7, source data, read-out: IC50 (best-fit value)", "result": 4610, "unit": "nM"}, {"measurement": "EC50", "setting": "[4]; Plasmodium falciparum, 3D7, 72 h", "result": "4610 ± 120", "unit": "nM"}]}
